Laboratory results: patent US9469645B2, “Compounds and compositions for the treatment of parasitic diseases” (Novartis AG, priority 2009, dated 2016)

Experiments:
W2 strain = assay: parasite proliferation assay in infected red blood cells (SYBR Green I), W2 strain; type: cell-based; conditions: Erythrocyte
Description: Compounds of the invention can be assayed to measure their capacity to inhibit proliferation of parasitemia in infected red blood cells. The proliferation is quantified by the addition of SYBR Green I (INVITROGEN)® dye which has a high affinity for double stranded DNA.

3D7 P. falciparum strain = assay: parasite proliferation assay in infected red blood cells (SYBR Green I); type: cell-based, Plasmodium falciparum; conditions: Plasmodium falciparum, 3D7, Erythrocyte, 3D7 strain; read-out: EC50 3D7 strain
In short: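 P. falciparum 3D7 grown in O+ human erythrocytes to 3–8% parasitemia and exposed to compounds. Proliferation read as the increase in parasite DNA. Detection used SYBR Green I in saponin/triton-X/EDTA lysis buffer, with overnight lysis at room temperature.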

| Structure (SMILES) | EC50 (W2 strain) [nM] | EC50 (3D7 P. falciparum strain) [nM] | EC50 (W2 strain; Plasmodium falciparum) [nM] |
| --- | --- | --- | --- |
| Fc1ccc(Nc2c(-c3ccc(F)cc3)nc3n2CCNC3)cc1 [Example 28, N,2-bis(4-fluorophenyl)-5,6,7,8-tetrahydroimidazo[1,2-a]pyrazin-3-amine] | 175 | 200 | – |
| CN[C@@H](CC(C)C)C(=O)N1CCn2c(nc(-c3ccc(F)cc3)c2Nc2ccc(C)cc2)C1 [Compound 378] | 63 | 60 | – |
| Cc1ccc(Nc2c(-c3ccc(F)c(F)c3)nc3n2CCN(C(=O)[C@@H](N)C(C)C)C3)cc1 [Compound 396] | 22 | 30 | – |
| Cc1cc(Nc2c(-c3cccc(F)c3)nc3n2CC(=O)N(CC2CNC2)C3(C)C)ccc1F [Compound 686] | – | 628 | 524 |
| O=C(Cc1ccncc1)N1CCn2c(nc(-c3ccc(F)cc3)c2Nc2ccc(Cl)c(F)c2)C1 [Compound 302] | 149 | 170 | – |
| Cc1ccc(Nc2c(-c3ccc(F)cc3)nc3n2CCN(C(=O)CC(C)(O)C(F)(F)F)C3)cc1 (stereo not shown) [Compound 120] | 123 | 110 | – |
| O=C(CN1CCCC(F)(F)C1)N1CCn2c(nc(-c3ccc(F)cc3)c2Nc2ccc(Cl)cc2)C1 [Compound 76] | 61 | 60 | – |
| Cc1ccc(Nc2c(-c3ccc(F)cc3)nc3n2CCN(C(=O)[C@@H]2CCCN2)C3)cc1 [Compound 90] | 600 | 650 | – |
| Cc1ccc(Nc2c(-c3ccc(F)cc3)nc3n2CCN(C(=O)[C@H](CCC(=O)OCc2ccccc2)NC(=O)OC(C)(C)C)C3)cc1 [Compound 150] | 673 | 960 | – |
| CC(C)(N)C(=O)N1CCn2c(nc(-c3ccc(F)cc3)c2Nc2ccc(OC(F)(F)F)cc2)C1 [Compound 643] | – | 2800 | 2170 |
| Cc1ccc(Nc2c(-c3ccc(F)cc3)nc3n2CCN(C(=O)C(C)(C)N)C3)cc1F [Compound 631] | – | 49 | 62 |
| O=C(CN1CCC(F)CC1)N1CCn2c(nc(-c3ccc(F)cc3)c2Nc2ccc(F)cc2)C1 [Compound 60] | 2130 | 2460 | – |
| Cc1ccc(Nc2c(-c3ccc(F)cc3)nc3n2CCN(C(=O)[C@H](C)N)C3)cc1 [Compound 83] | 131 | 80 | – |
| N[C@@H](C(=O)N1CCn2c(nc(-c3ccc(F)cc3)c2Nc2ccc(F)cc2)C1)C(F)(F)F [Compound 196] | 344 | 320 | – |
| O=C(Cc1ccc(Cl)c(F)c1)N1CCn2c(nc(-c3ccc(F)cc3)c2Nc2ccc(Cl)c(F)c2)C1 [Compound 363] | 1130 | 1750 | – |
| Cc1ccc(Nc2c(-c3ccc(F)cc3)nc3n2CCN(C(=O)CN(CCO)CCO)C3)cc1 [Compound 161] | 510 | 540 | – |
| CN[C@H](C(=O)N1CCn2c(nc(-c3ccc(F)cc3)c2Nc2ccc(C)cc2)C1)C(C)C [Compound 376] | 79 | 60 | – |
| Cc1ccc(Nc2c(-c3ccc(F)cc3)nc3n2CCN(C(=O)C2CCCN2)C3)cc1 (stereo not shown) [Compound 91] | 154 | 120 | – |
| CC1(C)c2nc(-c3ccc(F)cc3)c(Sc3ccc(Cl)cc3)n2CCN1C(=O)CN [Compound 716] | – | 2 | 1 |
| Cc1ccc(Nc2c(-c3ccc(F)cc3)nc3n2CCN(C(=O)C2(O)CC2)C3)cc1 [Compound 99] | 658 | 810 | – |

| Structure (SMILES) | EC50 (W2 strain) [nM] | EC50 (3D7 P. falciparum strain) [nM] | EC50 (W2 strain; Plasmodium falciparum) [nM] |
| --- | --- | --- | --- |
| Cc1ccc(Nc2c(-c3ccc(F)cc3)nc3n2CCN(C(=O)Cc2ccncn2)C3)cc1 [Compound 206] | 1170 | 1200 | – |
| COCCCNCC(=O)N1CCn2c(nc(-c3ccc(F)cc3)c2Nc2ccc(C)cc2)C1 [Compound 310] | 397 | 520 | – |
| O=C(CO)N1CCn2c(nc(-c3ccc(F)cc3)c2Nc2ccc(F)cc2)C1 [Example 44, 1-(2-(4-fluorophenyl)-3-(4-fluorophenylamino)-5,6-dihydroimidazo[1,2-a]pyrazin-7(8H)-yl)-2-hydroxyethanone] | 477 | 720 | – |
| Cc1cc(Nc2c(-c3ccc(F)cc3)nc3n2C(C)(C)C(=O)N(C)C3)ccc1F [Compound 617] | – | 6330 | 6880 |
| CCC(=O)Nc1ccc(C[C@H](N)C(=O)N2CCn3c(nc(-c4cccc(F)c4)c3Nc3ccc(F)cc3)C2)cc1 [Compound 261] | 4130 | 7060 | – |
| Cc1ccc(Nc2c(-c3ccc(F)cc3)nc3n2CCN(C(=O)C[C@@H](N)Cc2cc(F)c(F)cc2F)C3)cc1 [Compound 172] | 88 | 100 | – |
| O=C(NCC(=O)N1CCn2c(nc(-c3ccc(F)cc3)c2Nc2ccc(F)cc2)C1)OCc1ccccc1 [Compound 49] | 1900 | 2290 | – |
| Cc1ccc(Nc2c(-c3ccc(F)cc3)nc3n2CCN(C(=O)[C@H](N)CC(=O)O)C3)cc1 [Compound 287] | 7260 | 4360 | – |
| CCC[C@H](NC)C(=O)N1CCn2c(nc(-c3ccc(F)cc3)c2Nc2ccc(C)cc2)C1 [Compound 392] | 39 | 30 | – |
| Cc1ccc(Nc2c(-c3ccc(F)cc3)nc3n2CCN(C(=O)[C@H](N)[C@H](C)O)C3)cc1 [Compound 285] | 177 | 180 | – |
| CC1(C)c2nc(-c3ccc(F)cc3)c([S+]([O-])c3ccc(Cl)cc3)n2CCN1C(=O)CN (stereo not shown) [Compound 724] | – | 509 | 287 |
| CC1(C)CN(C(=O)CN)Cc2nc(-c3cccc(F)c3)c(Nc3ccc(Cl)cc3)n21 [Compound 620] | – | 40 | 41 |
| Fc1ccc(-c2nc3n(c2Nc2ccc(Cl)c(F)c2)CCCC3)cc1 [Compound 749] | – | 1050 | 814 |
| N[C@@H](Cc1ccc(F)cc1)C(=O)N1CCn2c(nc(-c3ccc(F)cc3)c2Nc2ccc(Cl)c(F)c2)C1 [Compound 316] | 14 | 20 | – |
| CC(C)(C)OC(=O)N[C@@H](CC(=O)OCc1ccccc1)C(=O)N1CCn2c(nc(-c3cccc(F)c3)c2Nc2ccc(Cl)c(F)c2)C1 [Compound 236] | 2060 | 5250 | – |
| CC1(C)c2nc(-c3ccc(F)cc3)c(Nc3ccc(F)cc3)n2CCN1C(=O)CNC(=O)CCNC(=O)CCc1ccc2oc3ccccc3c2c1 [Compound 729] | – | > 10000 | 6290 |
| CCCNC(=O)C[C@H](NC(=O)OC(C)(C)C)C(=O)N1CCn2c(nc(-c3cccc(F)c3)c2Nc2ccc(Cl)c(F)c2)C1 [Compound 247] | 3940 | 1420 | – |
| O=C(CCc1ccccc1F)N1CCn2c(nc(-c3ccc(F)cc3)c2Nc2ccc(Cl)c(F)c2)C1 [Compound 359] | 108 | 140 | – |
| CCN(CC)CCN1CCn2c(nc(-c3ccc(F)cc3)c2Nc2ccc(C)cc2)C1 [Compound 88] | 81 | 150 | – |
| CN1CCN(Cc2c(-c3ccc(F)cc3)nc3n2CCN(C(=O)CN)C3(C)C)CC1 [Compound 698] | – | 8810 | 9020 |

| Structure (SMILES) | EC50 (W2 strain) [nM] | EC50 (3D7 P. falciparum strain) [nM] | EC50 (W2 strain; Plasmodium falciparum) [nM] |
| --- | --- | --- | --- |
| CCCC(=O)OC(C(=O)N1CCn2c(nc(-c3ccc(F)cc3)c2Nc2ccc(C)cc2)C1)c1ccccc1 (stereo not shown) [Compound 269] | 6 | 10 | – |
| N#Cc1ccc(C[C@H](N)C(=O)N2CCn3c(nc(-c4ccc(F)cc4)c3Nc3ccc(Cl)c(F)c3)C2)cc1 [Compound 328] | 229 | 340 | – |
| CCCC(=O)NCCCC[C@H](N)C(=O)N1CCn2c(nc(-c3ccc(F)cc3)c2Nc2ccc(C)cc2)C1 [Compound 158] | 4760 | 7540 | – |
| Cc1cc(Nc2c(-c3ccc(F)cc3)nc3n2CC(=O)N(CCN(C)C)C3(C)C)ccc1F [Compound 683] | – | 125 | 112 |
| CCCCN[C@H](C(=O)N1CCn2c(nc(-c3ccc(F)cc3)c2Nc2ccc(C)cc2)C1)c1ccccc1 [Compound 295] | 283 | 210 | – |
| Cc1ccc(Nc2c(-c3ccc(F)cc3)nc3n2CCN(C(=O)C2(O)CCCC2)C3)cc1 [Compound 116] | 1510 | 1640 | – |
| CC(C)(C)CC(C)(C)Nc1c(-c2ccccc2Br)nc2ccccn12 [Compound 743] | – | 2680 | 3000 |
| CC[C@H](N)C(=O)N1CCn2c(nc(-c3ccc(F)cc3)c2Nc2ccc(C)cc2)C1 [Compound 85] | 31 | 20 | – |
| Cc1ccc(Nc2c(-c3ccc(F)cc3F)nc3n2CCNC3)cc1 [Compound 280] | 4650 | 4710 | – |
| CC1(C)CN(C(=O)CN)Cc2nc(-c3cccc(F)c3)c(Nc3ccc(F)cc3)n21 [Compound 621] | – | 40 | 45 |
| Cc1cc(Nc2c(-c3ccc(F)cc3)nc3n2C(C)(C)C(=O)NC3)ccc1Cl [Compound 619] | – | 570 | 713 |
| N[C@H](C(=O)N1CCn2c(nc(-c3ccc(F)cc3)c2Nc2ccc(F)cc2)C1)C(F)(F)F [Compound 195] | 20 | 20 | – |
| CC(C)(N)C(=O)N1CCn2c(nc(-c3ccc(F)cc3)c2Nc2ccc(C(F)(F)F)cc2)C1 [Compound 72] | 589 | 950 | – |
| CC1(C)c2nc(-c3ccc(F)cc3)c([S+]([O-])c3ccc(F)c(F)c3)n2CCN1C(=O)CN (stereo not shown) [Compound 723] | – | 89 | 68 |
| CCN1CCC(CC(=O)N2CCn3c(nc(-c4ccc(F)cc4)c3Nc3ccc(Cl)c(F)c3)C2)CC1 [Compound 304] | 2950 | 3210 | – |
| CC1(C)c2nc(-c3ccc(F)cc3)c(N3CCC(N4CCCCC4)CC3)n2CCN1C(=O)CN [Compound 669] | – | 3980 | > 10000 |
| Cc1ccc(Nc2c(-c3ccc(F)cc3)nc3n2CCN(C(=O)C(O)c2cccc(O)c2)C3)cc1 (stereo not shown) [Compound 129] | 6 | 10 | – |
| CCN(CC)CCOc1ccccc1-c1nc2ccccn2c1NC(C)(C)CC(C)(C)C [Compound 744] | – | 5240 | 2810 |
| Cc1cc(Nc2c(-c3cccc(F)c3)nc3n2CC(=O)N(CCCO)C3(C)C)ccc1F [Compound 690] | – | 866 | 760 |
